Assay results: patent publication US4311685A, “Assay method and kit” (Burroughs Wellcome Co., priority 1979, dated 1982)

Assay: in vitro
Conditions: human, plasma

SMILES: CC(C)NCC(O)COc1cccc2ccccc12 (racemic) [propranolol]
- fraction unbound at 12 h, 0.07 µM: 0.117
